Consider 14 compounds from ChEMBL document CHEMBL5291721, “A preclinical secondary pharmacology resource illuminates target-adverse drug reaction associations of marketed drugs” (Nat Commun, 2023).

The structures appear in SMILES notation.

Some targets named below: Mu-type opioid receptor (Homo sapiens, UniProt P35372); Melanocortin receptor 4 (Homo sapiens, UniProt P32245); Histamine H1 receptor (Homo sapiens, UniProt P35367).
A further experiment deals with T1, Adenosine receptor A1 (Homo sapiens, UniProt P30542).
T1 sequence (P30542 whole entry): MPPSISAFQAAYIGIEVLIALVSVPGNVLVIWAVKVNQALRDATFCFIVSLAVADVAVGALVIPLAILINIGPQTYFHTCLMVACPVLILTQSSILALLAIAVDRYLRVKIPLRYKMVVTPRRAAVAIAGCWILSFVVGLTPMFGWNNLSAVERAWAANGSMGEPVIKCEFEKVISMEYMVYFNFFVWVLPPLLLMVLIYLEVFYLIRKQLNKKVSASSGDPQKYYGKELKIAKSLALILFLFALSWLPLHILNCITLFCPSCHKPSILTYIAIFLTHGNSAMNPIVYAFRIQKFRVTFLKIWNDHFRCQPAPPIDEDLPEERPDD

Experiment [1] has as its target T2, Gastrin/cholecystokinin type B receptor (Homo sapiens, UniProt P32239).
T2 sequence (P32239 whole entry): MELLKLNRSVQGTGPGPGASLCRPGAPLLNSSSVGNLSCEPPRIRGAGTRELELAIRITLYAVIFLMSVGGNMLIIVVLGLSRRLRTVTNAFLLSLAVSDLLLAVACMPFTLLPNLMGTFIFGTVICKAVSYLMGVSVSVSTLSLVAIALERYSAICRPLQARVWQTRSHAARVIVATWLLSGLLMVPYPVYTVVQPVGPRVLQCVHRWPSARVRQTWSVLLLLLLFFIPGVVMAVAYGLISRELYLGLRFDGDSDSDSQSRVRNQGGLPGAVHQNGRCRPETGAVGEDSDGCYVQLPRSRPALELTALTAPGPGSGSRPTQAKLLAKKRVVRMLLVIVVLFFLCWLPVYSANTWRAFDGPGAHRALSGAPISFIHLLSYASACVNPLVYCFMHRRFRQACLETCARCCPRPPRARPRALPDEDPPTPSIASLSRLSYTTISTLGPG

Another experiment has as its target T3, B2 bradykinin receptor (Homo sapiens, UniProt P30411).
T3 sequence (P30411 whole entry): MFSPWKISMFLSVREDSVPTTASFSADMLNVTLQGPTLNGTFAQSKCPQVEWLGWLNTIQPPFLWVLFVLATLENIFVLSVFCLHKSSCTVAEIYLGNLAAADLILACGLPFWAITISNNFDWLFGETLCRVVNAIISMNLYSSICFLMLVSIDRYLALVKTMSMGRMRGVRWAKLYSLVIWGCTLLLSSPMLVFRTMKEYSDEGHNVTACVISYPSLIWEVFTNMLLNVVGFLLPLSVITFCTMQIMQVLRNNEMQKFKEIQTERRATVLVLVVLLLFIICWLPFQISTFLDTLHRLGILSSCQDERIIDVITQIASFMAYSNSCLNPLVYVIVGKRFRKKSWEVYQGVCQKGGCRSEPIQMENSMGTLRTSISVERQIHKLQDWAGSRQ

Experiment [2] has as its target T4, 5-hydroxytryptamine receptor 1A (Homo sapiens, UniProt P08908).
T4 sequence (P08908 whole entry): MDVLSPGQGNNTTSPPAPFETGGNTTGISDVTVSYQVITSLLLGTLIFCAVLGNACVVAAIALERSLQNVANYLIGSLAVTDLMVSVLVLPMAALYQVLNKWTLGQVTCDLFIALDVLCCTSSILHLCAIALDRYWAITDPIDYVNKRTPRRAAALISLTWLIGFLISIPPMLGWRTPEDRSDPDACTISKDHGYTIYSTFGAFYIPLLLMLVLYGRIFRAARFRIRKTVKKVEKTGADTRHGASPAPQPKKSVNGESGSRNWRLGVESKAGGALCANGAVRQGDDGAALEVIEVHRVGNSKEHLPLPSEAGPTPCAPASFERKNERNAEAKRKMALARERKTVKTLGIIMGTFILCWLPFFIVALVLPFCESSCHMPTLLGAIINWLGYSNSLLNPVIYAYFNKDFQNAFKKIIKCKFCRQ
Type of experiment: functional, cell-based.

The target of experiment [3] is T5, Alpha-1A adrenergic receptor (Homo sapiens, UniProt P35348).
T5 sequence (P35348 whole entry): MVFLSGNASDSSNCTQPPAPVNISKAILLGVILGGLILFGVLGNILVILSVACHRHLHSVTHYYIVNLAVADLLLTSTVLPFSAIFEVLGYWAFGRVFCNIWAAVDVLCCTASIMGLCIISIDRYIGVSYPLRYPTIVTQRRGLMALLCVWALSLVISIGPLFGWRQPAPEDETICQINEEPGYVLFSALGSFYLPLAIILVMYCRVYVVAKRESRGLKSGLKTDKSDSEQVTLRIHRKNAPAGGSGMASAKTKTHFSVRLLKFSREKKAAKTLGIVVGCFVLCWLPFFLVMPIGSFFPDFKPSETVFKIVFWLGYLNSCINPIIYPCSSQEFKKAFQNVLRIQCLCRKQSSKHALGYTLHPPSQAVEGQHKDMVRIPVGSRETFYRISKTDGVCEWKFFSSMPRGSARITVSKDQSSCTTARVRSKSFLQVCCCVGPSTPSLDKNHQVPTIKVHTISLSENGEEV
Format: functional, cell-based.

Experiment [4] has as its target 5-hydroxytryptamine receptor 2B (Homo sapiens, UniProt P41595). Type of experiment: functional, cell-based.
In experiment [5] the target is T6, Alpha-2A adrenergic receptor (Homo sapiens, UniProt P08913).
T6 sequence (P08913 whole entry): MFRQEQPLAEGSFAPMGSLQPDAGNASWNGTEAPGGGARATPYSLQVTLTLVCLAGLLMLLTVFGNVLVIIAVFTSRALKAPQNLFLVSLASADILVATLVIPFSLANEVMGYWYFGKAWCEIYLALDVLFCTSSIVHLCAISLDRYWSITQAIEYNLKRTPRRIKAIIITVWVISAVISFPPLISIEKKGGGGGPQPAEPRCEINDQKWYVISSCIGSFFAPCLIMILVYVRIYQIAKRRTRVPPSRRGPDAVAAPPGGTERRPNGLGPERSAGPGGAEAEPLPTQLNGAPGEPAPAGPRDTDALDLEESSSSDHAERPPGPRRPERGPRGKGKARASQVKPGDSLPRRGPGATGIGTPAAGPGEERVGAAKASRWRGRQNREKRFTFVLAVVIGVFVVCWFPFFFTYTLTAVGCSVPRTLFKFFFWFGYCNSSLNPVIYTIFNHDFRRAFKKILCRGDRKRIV
Format: functional, cell-based.

The target in experiment [6] is Muscarinic acetylcholine receptor M3 (Homo sapiens, UniProt P20309).
Muscarinic acetylcholine receptor M3, sequence (P20309 whole entry): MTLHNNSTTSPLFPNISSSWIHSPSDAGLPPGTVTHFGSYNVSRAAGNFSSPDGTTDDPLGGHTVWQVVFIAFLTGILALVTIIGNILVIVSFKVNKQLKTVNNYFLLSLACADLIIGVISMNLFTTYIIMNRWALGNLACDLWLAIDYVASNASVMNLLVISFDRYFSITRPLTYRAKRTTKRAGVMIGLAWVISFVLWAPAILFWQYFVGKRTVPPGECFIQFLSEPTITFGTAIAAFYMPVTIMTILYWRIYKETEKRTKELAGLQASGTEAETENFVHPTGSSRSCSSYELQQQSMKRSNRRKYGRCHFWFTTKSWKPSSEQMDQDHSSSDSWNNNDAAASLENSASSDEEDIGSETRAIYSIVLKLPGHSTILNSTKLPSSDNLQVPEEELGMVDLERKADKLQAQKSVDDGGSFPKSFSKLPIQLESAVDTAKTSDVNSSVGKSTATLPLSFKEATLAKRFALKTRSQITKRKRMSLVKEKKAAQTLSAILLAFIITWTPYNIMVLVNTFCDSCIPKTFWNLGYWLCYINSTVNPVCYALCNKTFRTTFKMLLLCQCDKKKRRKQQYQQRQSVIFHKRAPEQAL
For experiment [7], the target named is 5-hydroxytryptamine receptor 2A (Homo sapiens, UniProt P28223). Format: functional, cell-based.
5-hydroxytryptamine receptor 2A, sequence (P28223 whole entry): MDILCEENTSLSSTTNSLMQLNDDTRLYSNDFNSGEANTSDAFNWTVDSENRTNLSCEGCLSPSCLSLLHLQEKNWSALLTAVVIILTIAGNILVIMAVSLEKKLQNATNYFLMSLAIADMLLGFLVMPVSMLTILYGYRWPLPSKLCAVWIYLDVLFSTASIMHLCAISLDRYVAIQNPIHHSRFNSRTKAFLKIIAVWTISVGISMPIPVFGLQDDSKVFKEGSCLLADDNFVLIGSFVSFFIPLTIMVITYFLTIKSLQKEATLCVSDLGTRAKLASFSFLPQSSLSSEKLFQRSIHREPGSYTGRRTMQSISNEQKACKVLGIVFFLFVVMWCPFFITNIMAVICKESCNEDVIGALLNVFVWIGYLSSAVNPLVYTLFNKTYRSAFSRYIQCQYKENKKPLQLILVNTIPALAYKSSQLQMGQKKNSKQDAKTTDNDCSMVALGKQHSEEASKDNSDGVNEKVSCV
Note: assay procedure not described here.

Histamine H1 receptor, sequence (P35367 whole entry): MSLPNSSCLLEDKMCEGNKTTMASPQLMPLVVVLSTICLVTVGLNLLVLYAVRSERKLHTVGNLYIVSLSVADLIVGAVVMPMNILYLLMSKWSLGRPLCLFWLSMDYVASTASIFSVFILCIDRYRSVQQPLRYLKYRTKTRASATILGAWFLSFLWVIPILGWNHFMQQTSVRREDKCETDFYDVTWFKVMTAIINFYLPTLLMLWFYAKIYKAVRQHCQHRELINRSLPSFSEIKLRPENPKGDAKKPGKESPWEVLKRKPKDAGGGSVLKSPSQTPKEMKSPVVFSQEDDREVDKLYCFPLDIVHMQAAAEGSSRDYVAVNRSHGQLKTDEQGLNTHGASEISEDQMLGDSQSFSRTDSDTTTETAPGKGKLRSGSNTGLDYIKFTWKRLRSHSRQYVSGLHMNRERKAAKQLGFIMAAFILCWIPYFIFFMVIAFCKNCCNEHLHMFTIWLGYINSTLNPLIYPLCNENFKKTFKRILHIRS
Melanocortin receptor 4, sequence (P32245 whole entry): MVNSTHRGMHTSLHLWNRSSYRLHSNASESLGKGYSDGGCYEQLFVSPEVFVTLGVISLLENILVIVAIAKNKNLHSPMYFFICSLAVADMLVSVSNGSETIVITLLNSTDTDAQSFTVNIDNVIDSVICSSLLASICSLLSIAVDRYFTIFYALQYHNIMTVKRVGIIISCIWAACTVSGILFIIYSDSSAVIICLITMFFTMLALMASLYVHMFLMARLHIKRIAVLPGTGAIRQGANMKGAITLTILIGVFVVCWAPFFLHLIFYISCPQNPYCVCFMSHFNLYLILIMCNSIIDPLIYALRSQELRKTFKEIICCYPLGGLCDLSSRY
Mu-type opioid receptor, sequence (P35372 whole entry): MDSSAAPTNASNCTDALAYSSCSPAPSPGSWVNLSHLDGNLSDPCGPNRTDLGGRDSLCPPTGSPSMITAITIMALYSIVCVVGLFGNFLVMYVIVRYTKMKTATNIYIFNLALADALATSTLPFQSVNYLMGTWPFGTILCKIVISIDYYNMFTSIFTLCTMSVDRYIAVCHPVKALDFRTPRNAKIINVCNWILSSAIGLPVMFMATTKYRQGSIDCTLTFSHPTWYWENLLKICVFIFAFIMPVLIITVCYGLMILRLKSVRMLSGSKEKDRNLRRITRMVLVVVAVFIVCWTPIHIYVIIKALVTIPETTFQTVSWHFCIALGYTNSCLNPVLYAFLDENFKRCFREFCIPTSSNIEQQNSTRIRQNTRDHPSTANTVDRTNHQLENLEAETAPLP
5-hydroxytryptamine receptor 2B, sequence (P41595 whole entry): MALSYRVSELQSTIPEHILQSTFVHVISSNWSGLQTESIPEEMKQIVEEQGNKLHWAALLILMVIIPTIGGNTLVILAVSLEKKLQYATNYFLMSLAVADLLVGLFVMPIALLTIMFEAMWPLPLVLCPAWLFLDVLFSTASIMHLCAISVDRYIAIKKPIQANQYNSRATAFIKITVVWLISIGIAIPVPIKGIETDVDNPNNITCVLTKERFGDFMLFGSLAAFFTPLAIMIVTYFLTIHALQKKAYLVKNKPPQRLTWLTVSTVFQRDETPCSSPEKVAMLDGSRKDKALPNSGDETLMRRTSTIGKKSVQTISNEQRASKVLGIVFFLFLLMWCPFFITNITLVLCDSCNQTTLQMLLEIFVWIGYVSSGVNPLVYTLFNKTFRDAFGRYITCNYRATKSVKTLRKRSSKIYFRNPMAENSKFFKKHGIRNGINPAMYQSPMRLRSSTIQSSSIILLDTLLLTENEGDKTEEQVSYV

Consider `NC(=O)C[S+]([O-])C(c1ccccc1)c1ccccc1` (stereo unspecified) [MODAFINIL], for which the AC50 (in general, the concentration at which the activity in the assay is half-maximal) was more than 30 µM on Adenosine receptor A1; more than 30 µM in [1]; more than 10 µM on Mu-type opioid receptor; 24.1 µM on Melanocortin receptor 4; more than 30 µM on B2 bradykinin receptor; more than 10 µM in experiment [2]. The AC50 in experiment [3] was more than 30 µM; in [4], more than 10 µM; in experiment [5], more than 10 µM.
`Cc1c(C(=O)Nc2ccc(N3C[C@@H](C)O[C@@H](C)C3)nc2)cccc1-c1ccc(OC(F)(F)F)cc1` [SONIDEGIB]: the AC50 was more than 30 µM on Adenosine receptor A1; more than 30 µM in experiment [1]; more than 10 µM at Mu-type opioid receptor; more than 10 µM at Histamine H1 receptor; more than 30 µM on Melanocortin receptor 4; more than 30 µM at B2 bradykinin receptor.
Turning to `CCN1CCC[C@H]1CNC(=O)c1cc(S(N)(=O)=O)ccc1OC` [LEVOSULPIRIDE], the AC50 (at Adenosine receptor A1; in experiment [1]; at Mu-type opioid receptor; on Melanocortin receptor 4; at B2 bradykinin receptor; in [2]) was more than 30 µM each time. Also, the AC50 in [3] is more than 30 µM; in experiment [4], more than 10 µM; in experiment [5] it was more than 10 µM.
As to `COc1ccccc1OCC(O)COC(N)=O` (stereo unspecified) [METHOCARBAMOL], the AC50 on Adenosine receptor A1 is more than 10 µM; on Mu-type opioid receptor, more than 30 µM; on Melanocortin receptor 4, more than 10 µM; on B2 bradykinin receptor, more than 10 µM; in experiment [2], more than 10 µM; in [4] it was more than 10 µM. This compound gave an AC50 in experiment [5] of more than 10 µM.
Take `COc1c(N2CCNC(C)C2)c(F)cc2c(=O)c(C(=O)O)cn(C3CC3)c12` (stereo unspecified) [GATIFLOXACIN]: the concentration at half-maximal activity (AC50) was more than 10 µM at Adenosine receptor A1; more than 30 µM at Mu-type opioid receptor; more than 10 µM on Melanocortin receptor 4; more than 10 µM at B2 bradykinin receptor; more than 10 µM in experiment [2]; more than 10 µM in [4]. The same compound returned an AC50 in experiment [5] of more than 10 µM.
Consider `C#CCN[C@@H]1CCc2ccccc21` [RASAGILINE], for which the AC50 (in [6]; at Adenosine receptor A1; in experiment [1]; at Histamine H1 receptor; at Melanocortin receptor 4; on B2 bradykinin receptor) was more than 30 µM in each case. The concentration at half-maximal activity (AC50) in experiment [2], in [7], in [4] and in [5] was more than 30 µM each time.
On to `C#CCN(C)[C@H](C)Cc1ccccc1` [SELEGILINE], for which the AC50 at Adenosine receptor A1 is more than 10 µM; on Mu-type opioid receptor it was more than 30 µM; on Melanocortin receptor 4 it was more than 10 µM; on B2 bradykinin receptor, more than 10 µM; in experiment [2], more than 10 µM; in experiment [3] it was more than 30 µM. The AC50 in [4] and in experiment [5] was more than 10 µM throughout.
For `CN[C@@H]1[C@H](O)[C@H](NC)[C@H]2O[C@@]3(O)C(=O)C[C@@H](C)O[C@H]3O[C@@H]2[C@H]1O` [SPECTINOMYCIN], the concentration at half-maximal activity (AC50) at Adenosine receptor A1 is more than 10 µM; at Mu-type opioid receptor, more than 30 µM; on Melanocortin receptor 4, more than 10 µM; on B2 bradykinin receptor, more than 10 µM; in [2] it was more than 30 µM; in experiment [4], more than 30 µM. Further, in experiment [5], the half-maximal activity concentration (AC50) is more than 10 µM.
Consider `CN[C@@H](C)[C@H](O)c1ccccc1` [EPHEDRINE], for which the AC50 in [6] is more than 10 µM; on Adenosine receptor A1 it was more than 30 µM; in [1], more than 30 µM; at Mu-type opioid receptor, more than 30 µM; at Histamine H1 receptor, more than 10 µM; at Melanocortin receptor 4, more than 30 µM. The concentration at half-maximal activity (AC50) on B2 bradykinin receptor was more than 30 µM; in experiment [2], more than 10 µM; in experiment [3], 13 µM; in experiment [4], more than 10 µM; in experiment [5] it was more than 10 µM.
As to `CCNC(C)Cc1cccc(C(F)(F)F)c1` (stereo unspecified) [FENFLURAMINE], the AC50 (at Adenosine receptor A1; in experiment [1]; at Mu-type opioid receptor; at Melanocortin receptor 4; at B2 bradykinin receptor) was more than 30 µM throughout.
For the compound `CC(=O)O[C@@]12CO[C@@H]1C[C@H](O)[C@@]1(C)C(=O)[C@H](O)C3=C(C)[C@@H](OC(=O)[C@H](O)[C@@H](NC(=O)OC(C)(C)C)c4ccccc4)C[C@@](O)([C@@H](OC(=O)c4ccccc4)[C@H]21)C3(C)C` [DOCETAXEL ANHYDROUS], the half-maximal activity concentration (AC50) was more than 30 µM on Adenosine receptor A1; 19.2 µM in experiment [1]; more than 30 µM on Melanocortin receptor 4; more than 30 µM at B2 bradykinin receptor; more than 30 µM in experiment [2]; more than 30 µM in [4]. The compound also registered an AC50 in experiment [5] of more than 30 µM.
For the compound `CC(C)c1c(C(=O)Nc2ccccc2)c(-c2ccccc2)c(-c2ccc(F)cc2)n1CC[C@@H](O)C[C@@H](O)CC(=O)O` [ATORVASTATIN], the half-maximal activity concentration (AC50) at Adenosine receptor A1 is more than 30 µM; in [1], more than 30 µM; at Melanocortin receptor 4 it was more than 30 µM; on B2 bradykinin receptor, more than 30 µM; in experiment [2] it was more than 10 µM; in experiment [3] it was more than 30 µM. Further, the AC50 in experiment [5] was more than 10 µM.
As to `CCN(CC)CCOC(=O)c1ccc(N)cc1` [PROCAINE], the concentration at half-maximal activity (AC50) (at Adenosine receptor A1; in [1]; at Mu-type opioid receptor; at Melanocortin receptor 4; on B2 bradykinin receptor; in experiment [2]) was more than 30 µM each time. The figures for the AC50 in experiment [3], in experiment [4] and in experiment [5] were more than 30 µM, more than 10 µM and more than 10 µM, respectively.
Turning to `CN1CC[C@]23CCCC[C@H]2[C@H]1Cc1ccc(O)cc13` [LEVORPHANOL], the half-maximal activity concentration (AC50) was more than 30 µM in experiment [6]; more than 10 µM at Adenosine receptor A1; more than 30 µM at Histamine H1 receptor; more than 10 µM on Melanocortin receptor 4; more than 10 µM at B2 bradykinin receptor; more than 10 µM in [2]. Also, the AC50 in experiment [7], in [4] and in [5] was more than 10 µM in each case.
